Experimental data reported in patent publication US4119629A, “Certain azaphenoxathiin compounds” (priority 1977, dated 1978).
Where two headings read alike, the source gives them in different places.

Tests used:
[1] = Hexobarbital sleeping time potentiation; assay type: in vivo; conditions: control 58.5
Experimental: (§1) Further, the action of the drug at 200 mg/kg in the spontaneous motor activity test tends to reverse with greater activity observed (47%). An additional set of data was also acquired for this compound which was barbiturate induced sleeping time potentiation. […] Thus, compounds that may be prepared in accordance with Equation 3 above are: […]
(§2) Table of Barbiturate Sleeping Time Potentiation With
(§3) 7-Chloro-1-Azaphenoxathiin
Hexobarbital Sleeping Time Potentiation
(§4) Dose (mg/kg) Mean (min) SE (min)

[2] = LD50 studies of 7-chloro-1-azaphenoxathiin; assay type: in vivo
Excerpt: Table of LD50 Studies of 7-chloro-1-azaphenoxathiin
Test Animal Survival Time
Group* Dose (mg/kg) (Days)
*All animals were tail-coded
**LD50; dependent on the toleration of the animal for this drug

[3] = Effect on body temp., heart rate, and respiration in rats; assay type: in vivo; conditions: 100 mg/kg i.p.
Experimental: TABLE OF EFFECT OF 7-CHLORO-1-AZAPHENOXATHIIN 100 MG/KG I.P. ON
BODY TEMP., HEART RATE, AND RESPIRATION IN RATS

[4] = Barbital sleeping time potentiation; assay type: in vivo; conditions: control 125.4
Experimental: as §1, §2, §3, §4
Barbital Sleeping Time Potentiation

[5] = Spontaneous and forced motor activity tests; assay type: in vivo
Experimental: as §1

[6] = Barbiturate induced sleeping time potentiation; assay type: in vivo; conditions: in all cases
Experimental: as §1

[7] = Toxicity, survival time after im injection in DMSO; assay type: in vivo, mice
Excerpt: The following represents initial test observations for one of the above identified compounds.
Table of Toxicity Data for
1,5-bis(thiophenyl)-2-nitrobenzene* (2e)
Animal** (mg/kg im DMSO) Time (Days)
**All mice were tail-coded.
***Sacrificed at the end of 14 days.

[8] = assay type: in vivo, mice; conditions: 50 mg/kg
Excerpt: The following table illustrates utility of the compounds of the present invention as weight control agents.
Table of Weight Control Observed
With 1,5-bis(thiophenyl)-2-nitrobenzene
Animal (mg/kg) (grams) Date

[9] = Strychnine anticonvulsant study; assay type: in vivo; conditions: for Average Onset Time: saline control 3.10
Excerpt: TABLE OF STRYCHNINE ANTICONVULSANT STUDY
WITH 7-NITRO-1-AZAPHENOXATHIIN
Test Group Time (min) Deviation Error
______________________________________

[10] = Preliminary toxicity testing of 7-nitro-1-azaphenoxathiin
Experimental: These tests were run simultaneously using chloropromazine as a control. This compound was tested at doses of 50, 100 and 200 mg/kg.

Clc1ccc2c(c1)Oc1cccnc1S2 [7-chloro-1-azaphenoxathiin]
Hexobarbital Sleeping Time, Mean ([1]; 25 mg/kg): 79.8 min | Hexobarbital Sleeping Time, Mean ([1]; 50 mg/kg, p<0.05): 81.9 min | Hexobarbital Sleeping Time, Mean ([1]; 100 mg/kg, p<0.05): 104.4 min | Survival Time ([2]; 50 mg/kg, group 1, 14-day test period): 14 days | Survival Time ([2]; 100 mg/kg, group 2, 14-day test period): 14 days | Survival Time ([2]; 250 mg/kg, group 3, 14-day test period): 14 days | Survival Time ([2]; 500 mg/kg, group 4, 14-day test period): 14 days | survival of the 14-day test period ([2]; 750 mg/kg): several lived the 14-day test period | Survival Time ([2]; 750 mg/kg, group 5, LD50, dependent on the toleration of the animal): 0 to 14 days | Survival Time ([2]; 1,000 mg/kg, group 6): 0 days | Survival Time ([2]; 1,500 mg/kg, group 7): 0 days | LD50 ([2]; in vivo): ~750 mg/kg | tolerability ([2]; test animals): generally well tolerated | H.R. ([3]; time 0, N 5): 331.2 Beats/Min | Resp ([3]; time 0, N 5): 120.8 Breath/Min | Temp ([3]; time 0, N 5): 38.5 °C | H.R. ([3]; time 30, N 4): 314.0 Beats/Min | H.R. Δ From Veh ([3]; time 30, N 4): -34.0 Beats/Min | Resp ([3]; time 30, N 4): 101.2 Breath/Min | Resp Δ From Veh ([3]; time 30, N 4): -33.1 Breath/Min | Temp ([3]; time 30, N 4): 37.6 °C | Temp Δ From Veh ([3]; time 30, N 4): -0.4 °C | H.R. ([3]; time 60, N 4): 288.0 Beats/Min | H.R. Δ From Veh ([3]; time 60, N 4): -36.0 Beats/Min | Resp ([3]; time 60, N 4): 79.7 Breath/Min | Resp Δ From Veh ([3]; time 60, N 4): -65.9 Breath/Min | Temp ([3]; time 60, N 4): 36.8 °C | Temp Δ From Veh ([3]; time 60, N 4): -2.4 °C | H.R. ([3]; time 120, N 4): 273.0 Beats/Min | H.R. Δ From Veh ([3]; time 120, N 4): -55.0 Beats/Min | Resp ([3]; time 120, N 4): 70.0 Breath/Min | Resp Δ From Veh ([3]; time 120, N 4): -49.2 Breath/Min | Temp ([3]; time 120, N 4): 35.8 °C | Temp Δ From Veh ([3]; time 120, N 4): -2.4 °C | H.R. ([3]; time 180, N 4): 270.0 Beats/Min | H.R. Δ From Veh ([3]; time 180, N 4): -66.0 Beats/Min | Resp ([3]; time 180, N 4): 78.2 Breath/Min | Resp Δ From Veh ([3]; time 180, N 4): -41.8 Breath/Min | Temp ([3]; time 180, N 4): 35.4 °C | Temp Δ From Veh ([3]; time 180, N 4): -3.4 °C | H.R. ([3]; time 240, N 4): 289.0 Beats/Min | H.R. Δ From Veh ([3]; time 240, N 4): -51.0 Beats/Min | Resp ([3]; time 240, N 4): 82.3 Breath/Min | Resp Δ From Veh ([3]; time 240, N 4): -33.0 Breath/Min | Temp ([3]; time 240, N 4): 35.0 °C | Temp Δ From Veh ([3]; time 240, N 4): -3.6 °C | Barbital Sleeping Time, Mean ([4]; 25 mg/kg): 120.6 min | Barbital Sleeping Time, Mean ([4]; 50 mg/kg): 155.1 min | Barbital Sleeping Time, Mean ([4]; 100 mg/kg): 179.5 min | greater activity observed in the spontaneous motor activity test ([5]; 200 mg/kg, action tends to reverse): 47% | potency in both spontaneous and forced motor activity tests ([5]; compared with 7-nitro-1-azaphenoxathiin): somewhat more potent than the former | barbiturate induced sleeping times [6]: prolongation of barbiturate induced sleeping times

O=[N+]([O-])c1ccc(Sc2ccccc2)cc1Sc1ccccc1 [1,5-bis(thiophenyl)-2-nitrobenzene]
death resulting from decreased CNS activity [7]: death at higher doses | Weight ([8]; animal #5, 7/16/77): 16.0 grams | Weight ([8]; animal #5, 7/17/77): 15.8 grams | Weight ([8]; animal #5, 7/18/77): 16.0 grams | Weight ([8]; animal #5, 7/19/77): 16.0 grams | Weight ([8]; animal #5, 7/20/77): 16.0 grams | Weight ([8]; animal #5, 7/21/77): 16.0 grams

O=[N+]([O-])c1ccc2c(c1)Oc1cccnc1S2 [7-nitro-1-azaphenoxathiin]
activity as an anticonvulsant [9]: essentially no activity | Average Onset Time ([9]; 50 mg/kg): 3.21 min | Average Onset Time ([9]; 100 mg/kg): 3.06 min | Average Onset Time ([9]; 200 mg/kg): 3.06 min | toxicity [10]: surprisingly low toxicity
